The source of these data is US7223759B2, “Antibacterial 3,5-diaminopiperidine-substituted aromatic and heteroaromatic compounds” (Anadys Pharmaceuticals, Inc., priority 2003, dated 2007).

The subject of the first test is Escherichia coli (ATCC25922) or Staphylococcus aureus (ATCC25923). Kind of test: Antibacterial MIC, microdilution method in Mueller-Hinton medium. In kind it is cell-based. Conditions: Escherichia coli, 18 h, MIC in E. coli or S. aureus; two-fold serial dilutions 64 to 0.5 μg/ml in duplicate; 18 hours of incubation at 35° C.; read-out: Potency (MIC). An outline of the steps:
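Two-fold serial dilutions from 64 to 0.5 μg/ml, in duplicate, by broth microdilution in Mueller-Hinton medium (NCCLS M7-A5). MIC taken as the lowest concentration preventing visible growth after 18 h at 35° C.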
Consider `Cc1ccc(C(=O)Nc2ccc(Nc3nc(N4CCN(c5ccncc5)CC4)nc(N4C[C@H](N)C[C@H](N)C4)n3)cc2O)cc1` [N-{4-[4-((3R,5S)-3,5-Diamino-piperidin-1-yl)-6-(4-pyridin-4-yl-piperazin-1-yl)-[1,3,5]triazin-2-ylamino]-2-hydroxy-phenyl}-4-methyl-benzamide], for which the MIC is less than 64 µg/mL. Regarding `Cc1ccc(C(=O)Nc2ccc(Nc3nc(N4CCCCC4)nc(N4CCC(N5CCCC5)CC4)n3)cc2O)cc1` [N-{4-[4-((3R,5S)-3,5-Diamino-piperidin-1-yl)-6-(4-pyrrolidin-1-yl-piperidin-1-yl)-[1,3,5]triazin-2-ylamino]-2-hydroxy-phhenyl}-4-methyl-benzamide], the minimum inhibitory concentration (MIC) is less than 64 µg/mL. For the compound `Cc1ccc(S(=O)(=O)N(Cc2ccccc2)c2ccc(Nc3nc(C4CCCCC4)nc(N4CCCCC4)n3)cc2O)cc1.Cl` [N-{4-[4-((3S,5R)-3-Amino-5-hydroxy-piperidin-1-yl)-6-((3R,5S)-3,5-diamino-piperidin-1-l)-[1,3,5]triazin-2-ylamino]-2-hydroxy-phenyl}-N-benzyl-4-methyl-benzenesulfonamide], the minimal inhibitory concentration (MIC) was less than 64 µg/mL. As for `Cc1ccc(C(=O)Nc2ccc(Nc3nc(N(CCN)CCN)nc(N4CCCCC4)n3)cc2O)cc1.Cl` [N-{4-[4-[Bis-(2-amino-ethyl)-amino]-6-((3R,5S)-3,5-diamino-piperidin-1-yl-[1,3,5]triazin-2-ylamino]-2-hydroxy-phenyl}-4-methyl-benzamide], the MIC is less than 64 µg/mL. Regarding `Cc1cc(NC(=O)c2cc3cccc(O)c3cc2O)ccc1Nc1nc(N2C[C@H](N)C[C@H](N)C2)nc(N2C[C@H](N)C[C@H](N)C2)n1` [N-{4-[(3,5-dihydroxy-naphthalene-2-carbonyl)-amino]-2-methyl-phenyl}-4,6-Bis-((3R,5S)-3,5-diamino-piperidin-1-yl)-[1,3,5]triazine-2-amine], the MIC is less than 64 µg/mL.

`Cc1cc(Nc2nc(N3C[C@H](N)C[C@H](N)C3)nc(N3C[C@H](N)C[C@H](N)C3)n2)ccc1NC(=O)c1cc2cccc(O)c2cc1O` [N-{4-[(3,5-dihydroxy-naphthalene-2-carbonyl)-amino]-3-methyl-phenyl]-4,6-Bis-((3R,5S)-3,5-diamino-piperidin-1-yl)-[1,3,5]triazine-2-amine]: the minimal inhibitory concentration (MIC) was less than 64 µg/mL.

`N[C@@H]1C[C@H](N)CN(c2nc(Nc3ccc(NC(=O)c4cc5cccc(O)c5cc4O)cc3)nc(N3C[C@H](N)C[C@H](N)C3)n2)C1` [N-{4-[(3,5-dihydroxy-naphthalene-2-carbonyl)-amino]-phenyl}-4,6-Bis-((3R,5S)-3,5-diamino-piperidin-1-yl)-[1,3,5]triazine-2-amine]: the minimal inhibitory concentration (MIC) is less than 64 µg/mL.

`N[C@@H]1C[C@H](N)CN(c2nc(Nc3ccc(NC(=O)C45CC6CC(CC(C6)C4)C5)c(O)c3)nc(N3C[C@H](N)C[C@H](N)C3)n2)C1` [N-{4-[(adamantane-1-carbonyl)-amino]-3-hydroxy-phenyl}-4,6-Bis-((3R,5S)-3,5-diamino-piperidin-1-yl)-[1,3,5]triazine-2-amine]: the MIC was less than 16 µg/mL.

Staying with this test, now noted: Escherichia coli, 18 h, read-out: Potency (MIC).
Consider `Cc1ccc(S(=O)(=O)N(Cc2ccccc2)c2ccc(Nc3nc(N4C[C@H](N)C[C@H](N)C4)nc(N4CC[C@H](O)[C@H](CN)C4)n3)c(O)c2)cc1` [N-{4-[4-((3R,4S)-3-Aminomethyl-4-hydroxy-piperidin-1-yl)-6-((3R,5S)-3,5-diamino-piperidin-1-yl)-[1,3,5]triazin-2-ylamino]-3-hydroxy-phenyl}-N-benzyl-4-methyl-benzenesulfonamide], for which the MIC is less than 64 µg/mL. Still for that read-out and setting: to `NC[C@@H]1C[C@H](CN)CN(c2nc(Nc3ccc(NC(=O)c4ccc(Cl)cc4)c(O)c3)nc(N3C[C@H](N)C[C@H](N)C3)n2)C1` [N-{4-[4-((3R,5S)-3,5-Bis-(aminomethyl)-piperidin-1-yl)-6-((3R,5S)-3,5-diamino-piperidin-1-yl)-[1,3,5]triazin-2-ylamino]-2-hydroxy-phenyl}-4-chloro-benzamide] belongs less than 16 µg/mL; to `Cc1ccc(C(=O)Nc2ccc(Nc3nc(N4C[C@H](N)C[C@H](N)C4)nc(N4CCC[C@@H](O)C4)n3)cc2O)cc1` [N-{4-[4-((3R,5S)-3,5-Diamino-piperidin-1-yl)-6-((R)-3-hydroxy-piperidin-1-yl)-[1,3,5]triazin-2-ylamino]-2-hydroxy-phenyl}-4-methyl-benzamide], more than 64 µg/mL. Same read-out and setting: to `Cc1ccc(C(=O)Nc2ccc(Nc3nc(NC4CCNCC4)nc(N4C[C@H](N)C[C@H](N)C4)n3)cc2O)cc1` [N-{4-[4-((3R,5S)-3,5-Diamino-piperidin-1-yl)-6-(piperidin-4-ylamino)-[1,3,5]triazin-2-ylamino]-2-hydroxy-phenyl}-4-methyl-benzamide] belongs less than 16 µg/mL. Still for that read-out and setting: to `COc1nc(Nc2ccc(NC(=O)c3ccc(C)cc3)c(O)c2)nc(N2C[C@H](N)C[C@H](N)C2)n1` [N-{4-[4-((3R,5S)-3,5-Diamino-piperidin-1-yl)-6-methoxy-[1,3,5]triazin-2-ylamino]-2-hydroxy-phenyl}-4-methyl-benzamide] belongs less than 64 µg/mL. With `Cc1ccc(C(=O)Nc2ccc(Nc3nc(N4C[C@H](N)C[C@H](N)C4)nc(N4C[C@H](CN)C[C@H](CN)C4)n3)cc2O)cc1` [N-{4-[4-((3S,5R)-3,5-Bis-(aminomethyl)-piperidin-1-yl)-6-((3R,5S)-3,5-diamino-piperidin-1-yl)-[1,3,5]triazin-ylamino]-2-hydroxy-phenyl}-4-methyl-benzamide], the MIC was less than 64 µg/mL.

`Cc1ccc(C(=O)Nc2ccc(Nc3nc(N4C[C@H](N)C[C@H](N)C4)nc(N4C[C@@H](N)C[C@@H](O)C4)n3)cc2O)cc1` [N-{4-[4-((3S,5R)-3-Amino-5-hydroxy-piperidin-1-yl)-6-((3R,5S)-3,5-diamino-piperidin-1-yl)-[1,3,5]triazin-2-ylamino]-2-hydroxy-phenyl}-4-methyl-benzamide]: the MIC is less than 64 µg/mL. On the same count and under the same terms, the value for `N[C@@H]1C[C@H](N)CN(c2nc(Nc3ccc(NC(=O)c4ccc(Cl)cc4)c(O)c3)nc(N3C[C@@H](N)C[C@@H](O)C3)n2)C1` [N-{4-[4-((3S,5R)-3-Amino-5-hydroxy-piperidin-1-yl)-6-((3S,5R)-3,5-diamino-piperidin-1-yl)-[1,3,5]triazin-2-ylamino]-2-hydroxy-phenyl}-4-chloro-benzamide] was less than 16 µg/mL. Same read-out and setting: to `NCCN(CCN)c1nc(Nc2ccc(NC(=O)C(=O)c3c[nH]c4ccccc34)c(O)c2)nc(N2C[C@H](N)C[C@H](N)C2)n1` [N-{4-[4-[Bis-(2-amino-ethyl)-amino]-6-((3R,5S)-3,5-diamino-piperidin-1-yl)-[1,3,5]triazin-2-ylamino]-2-hydroxy-phenyl}-2-(1H-indol-3-yl)-2-oxo-acetamide] belongs less than 16 µg/mL. Still for that read-out and setting: to `NCCN(CCN)c1nc(Nc2ccc(NC(=O)c3ccc(Cl)cc3)c(O)c2)nc(N2C[C@H](N)C[C@H](N)C2)n1` [N-{4-[4-[Bis-(2-amino-ethyl)-amino]-6-((3R,5S)-3,5-diamino-piperidin-1-yl)-[1,3,5]triazin-2-ylamino]-2-hydroxy-phenyl}-4-chloro-benzamide] belongs less than 64 µg/mL; to `N[C@@H]1C[C@H](N)CN(c2nc(Nc3ccc(NC(=O)c4ccc5ccccc5c4O)cc3)nc(N3C[C@H](N)C[C@H](N)C3)n2)C1` [N-{4-[(1-hydroxy-naphthalene-2-carbonyl)-amino]-phenyl}-4,6-Bis-((3R,5S)-3,5-diamino-piperidin-1-yl)-[1,3,5]triazine-2-amine], less than 16 µg/mL. With `N[C@@H]1C[C@H](N)CN(c2nc(Nc3ccc(NC(=O)c4ccc(C(F)(F)F)nc4O)cc3)nc(N3C[C@H](N)C[C@H](N)C3)n2)C1` [N-{4-[(2-hydroxy-6-trifluoromethyl-pyridine-3-carbonyl)-amino]-phenyl}-4,6-Bis-((3R,5S)-3,5-diamino-piperidin-1-yl)-[1,3,5]triazine-2-amine], the MIC was less than 16 µg/mL.

Regarding `N[C@@H]1C[C@H](N)CN(c2nc(Nc3ccc(NC(=O)c4c(O)ccc5ccccc45)cc3)nc(N3C[C@H](N)C[C@H](N)C3)n2)C1` [N-{4-[(2-hydroxy-naphthalene-1-carbonyl)-amino]-phenyl}-4,6-Bis-((3R,5S)-3,5-diamino-piperidin-1-yl)-[1,3,5]triazine-2-amine], the MIC is less than 16 µg/mL. In the case of `N[C@@H]1C[C@H](N)CN(c2nc(Nc3ccc(NC(=O)c4ncccc4O)cc3)nc(N3C[C@H](N)C[C@H](N)C3)n2)C1` [N-{4-[(3-hydroxy-pyridine-2-carbonyl)-amino]-phenyl}-4,6-Bis-((3R,5S)-3,5-diamino-piperidin-1-yl)-[1,3,5]triazine-2-amine], the minimal inhibitory concentration (MIC) was less than 64 µg/mL. Take `N[C@@H]1C[C@H](N)CN(c2nc(Nc3ccc(NC(=O)c4cc(Cl)cnc4O)cc3)nc(N3C[C@H](N)C[C@H](N)C3)n2)C1` [N-{4-[(5-chloro-2-hydroxy-pyridine-3-carbonyl)-amino]-phenyl}-4,6-Bis-((3R,5S)-3,5-diamino-piperidin-1-yl)-[1,3,5]triazine-2-amine]: the MIC was less than 64 µg/mL.

As for `N[C@@H]1C[C@H](N)CN(c2nc(Nc3ccc(NC(=O)c4ccc5cccnc5c4O)cc3)nc(N3C[C@H](N)C[C@H](N)C3)n2)C1` [N-{4-[(8-hydroxy-quinoline-7-carbonyl)-amino]-phenyl}-4,6-Bis-((3R,5S)-3,5-diamino-piperidin-1-yl)-[1,3,5]triazine-2-amine], the MIC is less than 16 µg/mL.

Staying with this test, now noted: MIC in E. coli or S. aureus; two-fold serial dilutions 64 to 0.5 μg/ml in duplicate; 18 hours of incubation at 35° C.
Take `NC[C@@H]1C[C@H](N)CN1c1nc(Nc2ccc(NC(=O)C(=O)c3c[nH]c4ccccc34)c(O)c2)nc(N2C[C@H](N)C[C@H](N)C2)n1` [N-{4-[4-((2S,4S)-44-Amino-2-aminomethyl-pyrrolidin-1-yl)-6-((3R,5S)-3,5-diamino-piperidin-1-yl)-[1,3,5]triazin-2-ylamino]-2-hydroxy-phenyl}-2-(1H-indol-3-yl)-2-oxo-acetamide]: the “Potency (MIC)” value is given as “++ (++ means MIC<16 μg/ml in E. coli or S. aureus)”.
